In ChEMBL document CHEMBL1201862, “PubChem BioAssay data set” (2004):
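Following 48 hours of exposure in 96-well plates, responses at five concentrations were used to interpolate endpoints linearly. Abbreviation: GI50, concentration required for 50% inhibition of growth.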 The source made the active and inactive calls. No stated cut-off is given here; in the data, active = GI50 up to about 1.1 µM and inactive = higher. *1 amine or outer side, *2 acyl side, *3 side chain or, on linkers, in order; H or OH if unused. Where a SMILES comes first, the peptide text is derived from it. Bridges are numbered along the chain shown (N, C = ends). Roman numbers before positions name the chains, in order. [ ]: non-standard residue; d: D form. Actinocin(9to1) = Cc1c2oc3c(C)ccc(C(=O)[*:1])c3nc-2c(C(=O)[*:2])c(N)c1=O; NMeV = CN[CH](C(=O)O)C(C)C; Sar = CNCC(=O)O

Key:
Assay in all cases: growth of human tumour cells (NCI), 48 h
A498 = tested on: A498
BT-549 = tested on: BT-549
CAKI-1 = tested on: CAKI-1
HOP-92 = tested on: HOP-92
HT-29 = tested on: HT-29
IGROV-1 = tested on: IGROV-1
K562 = tested on: K562
LOX IMVI = tested on: LOX IMVI
MDA-N = tested on: MDA-N
OVCAR-4 = tested on: OVCAR-4
OVCAR-5 = tested on: OVCAR-5
OVCAR-8 = tested on: OVCAR-8
RPMI-8226 = tested on: RPMI-8226
RXF 393 = tested on: RXF 393
SF-539 = tested on: SF-539
SK-MEL-2 = tested on: SK-MEL-2
SN12C = tested on: SN12C
SNB-75 = tested on: SNB-75
SW-620 = tested on: SW-620
TK-10 = tested on: TK-10

`COc1cccc(CSCC(=O)O)c1` was tested, and the GI50 (A498) was > 100 µM (inactive), the GI50 (BT-549) was > 100 µM (inactive) and the GI50 (CAKI-1) was > 100 µM (inactive). For the same molecule, the GI50 (HOP-92) was > 100 µM (inactive), the GI50 (HT-29) was > 100 µM (inactive) and the GI50 (IGROV-1) was > 100 µM (inactive). For the same molecule, the GI50 (K562) was > 100 µM (inactive), the GI50 (LOX IMVI) was > 100 µM (inactive) and the GI50 (MDA-N) was > 100 µM (inactive). For the same molecule, the GI50 (OVCAR-4) was > 100 µM (inactive), the GI50 (OVCAR-5) was > 100 µM (inactive) and the GI50 (OVCAR-8) was > 100 µM (inactive). For the same molecule, the GI50 (RPMI-8226) was > 100 µM (inactive), the GI50 (RXF 393) was > 100 µM (inactive) and the GI50 (SF-539) was > 100 µM (inactive). The GI50 (SK-MEL-2) was > 100 µM (inactive), the GI50 (SN12C) was > 100 µM (inactive) and the GI50 (SNB-75) was > 100 µM (inactive). For the same molecule, the GI50 (SW-620) was > 100 µM (inactive) and the GI50 (TK-10) was > 100 µM (inactive).

`Cc1c2oc3c(C)ccc(C(=O)NC4C(=O)NC(C(C)C)C(=O)N5CCCC5C(=O)N(C)CC(=O)N(C)C(C(C)C)C(=O)OC4C)c3nc-2c(C(=O)NC2C(=O)NC(C(C)C)C(=O)N3CCCC3C(=O)N(C)CC(=O)N(C)C(C(C)C)C(=O)OC2C)c(N)c1=O` (stereo not given) (I: TVP[Sar][NMeV] / II: TVP[Sar][NMeV]; ester I:1-I:C, II:1-II:C; linker I:N-II:N via Actinocin(9to1); configuration not given here) was tested, and the GI50 (A498) was 0.00169 µM (active), the GI50 (BT-549) was 0.0025 µM (active) and the GI50 (CAKI-1) was 0.00224 µM (active). For the same molecule, the GI50 (HOP-92) was 0.00177 µM (active), the GI50 (HT-29) was < 0.0001 µM (active) and the GI50 (IGROV-1) was 0.00011 µM (active). For the same molecule, the GI50 (K562) was < 0.0001 µM (active), the GI50 (LOX IMVI) was < 0.0001 µM (active) and the GI50 (MDA-N) was 0.000197 µM (active). The GI50 (OVCAR-4) was 0.000445 µM (active), the GI50 (OVCAR-5) was 0.00181 µM (active) and the GI50 (OVCAR-8) was 0.000212 µM (active). For the same molecule, the GI50 (RPMI-8226) was 0.00104 µM (active), the GI50 (RXF 393) was 0.00136 µM (active) and the GI50 (SF-539) was < 0.0001 µM (active). For the same molecule, the GI50 (SK-MEL-2) was < 0.0001 µM (active), the GI50 (SN12C) was 0.00011 µM (active) and the GI50 (SNB-75) was < 0.0001 µM (active). The GI50 (SW-620) was 0.000698 µM (active) and the GI50 (TK-10) was 0.0101 µM (active).

In the case of `CC(C)=CCC[C@@H](C)[C@H]1CC[C@@]2(C)[C@@H]3CC[C@H]4C(C)(C)[C@@H](O)CC[C@@]45C[C@@]35CC[C@]12C` [CYCLOARTENOL], the GI50 (A498) is reported as 41.2 µM (inactive), the GI50 (BT-549) is reported as 21.1 µM (inactive) and the GI50 (CAKI-1) is reported as 59.6 µM (inactive). For the same molecule, the GI50 (HOP-92) was 17.7 µM (inactive), the GI50 (HT-29) was > 100 µM (inactive) and the GI50 (IGROV-1) was 16.1 µM (inactive). The GI50 (K562) was 26 µM (inactive), the GI50 (LOX IMVI) was 21 µM (inactive) and the GI50 (MDA-N) was > 72.9 µM (inactive). For the same molecule, the GI50 (OVCAR-4) was > 100 µM (inactive), the GI50 (OVCAR-5) was > 54.2 µM (inactive) and the GI50 (OVCAR-8) was 16.9 µM (inactive). For the same molecule, the GI50 (RPMI-8226) was 45 µM (inactive), the GI50 (RXF 393) was 18 µM (inactive) and the GI50 (SF-539) was > 49.7 µM (inactive). The GI50 (SK-MEL-2) was 27.2 µM (inactive), the GI50 (SN12C) was 20 µM (inactive) and the GI50 (SNB-75) was > 55.7 µM (inactive). The GI50 (SW-620) was 58.2 µM (inactive) and the GI50 (TK-10) was > 100 µM (inactive).

For `Oc1ccc(Cl)cc1Sc1cc(Cl)ccc1O` [FENTICLOR], the GI50 (A498) was 11.2 µM (inactive), the GI50 (BT-549) was 12.9 µM (inactive) and the GI50 (CAKI-1) was 17.9 µM (inactive). The GI50 (HOP-92) was 3.15 µM (inactive), the GI50 (HT-29) was 18 µM (inactive) and the GI50 (IGROV-1) was 15.1 µM (inactive). The GI50 (K562) was 8.34 µM (inactive), the GI50 (LOX IMVI) was 8.55 µM (inactive) and the GI50 (MDA-N) was 7.24 µM (inactive). For the same molecule, the GI50 (OVCAR-4) was 10 µM (inactive), the GI50 (OVCAR-5) was 13.4 µM (inactive) and the GI50 (OVCAR-8) was 15 µM (inactive). For the same molecule, the GI50 (RPMI-8226) was 3.32 µM (inactive), the GI50 (RXF 393) was 14.2 µM (inactive) and the GI50 (SF-539) was 17.7 µM (inactive). For the same molecule, the GI50 (SK-MEL-2) was 10.5 µM (inactive), the GI50 (SN12C) was 10.5 µM (inactive) and the GI50 (SNB-75) was 16.2 µM (inactive). The GI50 (SW-620) was 16.7 µM (inactive) and the GI50 (TK-10) was 17.1 µM (inactive).

With `O=C1c2ccccc2-n2c1nc1ccccc1c2=O` [TRYPTANTHRIN] the GI50 (A498) was 18.2 µM (inactive), the GI50 (BT-549) was 14.6 µM (inactive) and the GI50 (CAKI-1) was 12.3 µM (inactive). The GI50 (HOP-92) was 44.5 µM (inactive), the GI50 (HT-29) was 14.8 µM (inactive) and the GI50 (IGROV-1) was 23 µM (inactive). The GI50 (K562) was 3.18 µM (inactive), the GI50 (LOX IMVI) was 4.44 µM (inactive) and the GI50 (MDA-N) was 18.2 µM (inactive). For the same molecule, the GI50 (OVCAR-4) was 19.1 µM (inactive), the GI50 (OVCAR-5) was 16 µM (inactive) and the GI50 (OVCAR-8) was 5.79 µM (inactive). For the same molecule, the GI50 (RPMI-8226) was 1.04 µM (active), the GI50 (RXF 393) was 28.1 µM (inactive) and the GI50 (SF-539) was 20.7 µM (inactive). For the same molecule, the GI50 (SK-MEL-2) was 10.1 µM (inactive), the GI50 (SN12C) was 12.6 µM (inactive) and the GI50 (SNB-75) was 30.8 µM (inactive). For the same molecule, the GI50 (SW-620) was 20.8 µM (inactive) and the GI50 (TK-10) was > 43.3 µM (inactive).
